According to publication PMC11853949 (European journal of medicinal chemistry, 2025):

Test system: Vγ9Vδ2 T cells exposed to compound-loaded K562 cells
Assay: Vγ9Vδ2 T cell interferon γ ELISA with compound-loaded K562 cells
Type: cell-based, human
Details: versus aryl amidate range 110-230 nM

C/C(=C\CCP(=O)(OCOC(=O)c1cn(-c2ccc(F)cc2)nn1)Oc1ccccc1)CO (stereo not shown) [Compound 25b, (E)-(((5-Hydroxy-4-methylpent-3-en-1-yl)(phenoxy)phosphoryl)oxy)methyl-1-(4-fluorophenyl)-1H-1,2,3-triazole-4-carboxylate]
fold more active than aryl amidates (1 hour cytokine EC50): more than 100 fold
